# Laboratory results taken from PMC6128740 (European journal of drug metabolism and pharmacokinetics, 2018).
# Like-named read-outs stand apart in the source and are kept apart here.
# What was measured:
# [1] = C3 partitioning and plasma protein binding in mouse blood and plasma; format: in vitro ADME
# [2] = mouse, in vivo; for V (volume of distribution): 1.1 mg/kg
# [3] = Tissue distribution of 14C-C3 in mice; design: species or system C57BL/6J mice; conditions: mouse, in vivo
# [4] = Stability of C3 in solutions at pH 1 or pH 10; format: physicochemical; conditions: pH 1 or pH 10 for >24 h at 37°C
# [5] = mouse, in vivo
# [6] = tested on: pregnant mouse dams; conditions: in vivo; cited from earlier work
# [7] = 10 or 100 μg/ml, 3000 mwco centricon filter
substance,measurement,setting,value
"e,e,e, tris malonic acid C60 [C3]",14C-C3 in the filtrate of the saline control,[1]; [7],73%
same,14C-C3 in the plasma filtrate (free),[1]; [7],13%
same,fraction of blood C3 in the plasma fraction,"[1]; blood from treated animals and naïve blood spiked with 14C-C3, centrifugation",> 99%
same,protein bound,"[1]; mouse plasma, 10 or 100 μg/ml, mean ± SEM",87 ± 0.1%
same,V (volume of distribution),[2]; ip,0.91 ± 0.12 L/kg
same,V (volume of distribution),[2]; iv,0.85 ± 0.08 L/kg
same,Oral bioavailability,[2]; po,~ 10 % of the i.v. administration
same,"tissue radioactivity, 7-day pump vs single bolus dose, adjusted for dose",[3],5 times
same,stability in solution,[4],"a small fraction of carboxylic acid head-groups were removed, but the cyclopropane carbons were intact"
same,brain uptake,[5],10 % of the administered dose
same,"effects on fertility, pregnancy, viability or anatomy of the offspring",[6],failed to find any effects
